We go through 28 compounds from BindingDB's records for doi:10.1021/acs.jmedchem.9b00963 (Hong Kong Polytechnic University, 2019).

pEC50: −log10 of the molar value. Bounds are passed on as bounds.

Data set [1] can be described thus: Inhibition of BCRP in human MCF7/MX100 cells assessed as reversal of topotecan resistance after 5 days by MTS/PMS assay.
The nature of data set [2]: Inhibition of BCRP (unknown origin) transfected in HEK293/R2 cells assessed as reversal of topotecan resistance after 5 days by MTS/PMS assay.
Data set [3] is described as follows: Inhibition of P-gp (unknown origin) expressed in human LCC6MDR cells assessed as reversal of paclitaxel resistance after 5 days by MTS/PMS assay.

As for `COC(=O)c1cccc(COc2c(-c3ccc(OCCOCCOCCn4cc(-c5ccc(-c6cn(CCOCCOCCOc7ccc(-c8oc9ccccc9c(=O)c8OCc8cccc(C(=O)OC)c8)cc7)nn6)cc5)nn4)cc3)oc3ccccc3c2=O)c1`, the pEC50 in data set [1] is 7.85; in data set [2], 8.62; in data set [3], under 6.00.

`Cc1ccc2oc(-c3ccc(OCCOCCOCCn4cc(COCCOc5ccc6c(=O)cc(-c7ccccc7)oc6c5)nn4)cc3)cc(=O)c2c1`: the pEC50 in data set [1] was 6.84; in data set [2] it was 7.05; in data set [3], 6.11.

For the compound `COC(=O)c1cccc(COc2c(-c3ccc(OCCOCCn4cc(CN5CCN(Cc6cn(CCOCCOc7ccc(-c8oc9ccccc9c(=O)c8OCc8cccc(C(=O)OC)c8)cc7)nn6)CC5)nn4)cc3)oc3ccccc3c2=O)c1`, the pEC50 is 7.72 in data set [1], 7.74 in data set [2] and 6.17 in data set [3].

On to `Cc1ccc2oc(-c3ccc(OCCOCCOCCn4cc(CCCOc5ccc6c(=O)cc(-c7ccccc7)oc6c5)nn4)cc3)cc(=O)c2c1`, for which the pEC50 is 6.73 in data set [1], 7.46 in data set [2] and 6.46 in data set [3].

With `O=c1cc(-c2ccc(OCCCc3cn(CCOCCOc4ccc5c(=O)cc(-c6ccccc6)oc5c4)nn3)cc2)oc2cc(F)ccc12`, the pEC50 in data set [1] is 8.10; in data set [2] it was 8.19; in data set [3] it was 7.16.

On to `Cc1ccc2oc(-c3ccc(OCCOCCOCCn4cc(CN(CCOc5ccc6c(=O)cc(-c7ccccc7)oc6c5)Cc5ccccc5)nn4)cc3)cc(=O)c2c1`, for which the pEC50 is 7.80 in data set [1], 7.26 in data set [2] and 6.68 in data set [3].

Take `O=c1cc(-c2ccccc2)oc2cc(OCCOCCn3cc(CN(Cc4ccccc4)Cc4cn(CCOCCOc5ccc6c(=O)cc(-c7ccccc7)oc6c5)nn4)nn3)ccc12`: the pEC50 in data set [1] was 6.56; in data set [2] it was 6.82; in data set [3], under 6.00.

Take `O=c1cc(-c2ccccc2)oc2cc(OCCOCc3cn(CCOCCOCCOc4ccc(-c5cc(=O)c6cc(F)ccc6o5)cc4)nn3)ccc12`: the negative-log EC50 (pEC50) in data set [1] is 6.58; in data set [2], 6.64; in data set [3], 6.01.

For `O=c1cc(-c2ccccc2)oc2cc(OCCOCc3cn(CCOCCOc4ccc(-c5cc(=O)c6cc(F)ccc6o5)cc4)nn3)ccc12`, the pEC50 in data set [1] was 6.71; in data set [2] it was 6.55; in data set [3] it was under 6.00.

Turning to `COC(=O)c1cccc(COc2c(-c3ccc(OCCOCCOCCn4cc(CN5CCN(Cc6cn(CCOCCOCCOc7ccc(-c8oc9ccccc9c(=O)c8OCc8cccc(C(=O)OC)c8)cc7)nn6)CC5)nn4)cc3)oc3ccccc3c2=O)c1`, the pEC50 in data set [1] was 7.40; in data set [2], 7.51; in data set [3] it was under 6.00.

As to `O=c1cc(-c2ccccc2)oc2cc(OCCCCc3cn(CCOCCOCCOc4ccc5c(=O)cc(-c6ccccc6)oc5c4)nn3)ccc12`, the values for the pEC50 in data set [1], in data set [2] and in data set [3] were 7.03, 7.33 and 6.54, respectively.

For `O=c1cc(-c2ccccc2)oc2cc(OCCOCCOCCn3cc(CN(CCOc4ccc5c(=O)cc(-c6ccccc6)oc5c4)Cc4ccccc4)nn3)ccc12`, the pEC50 was 7.24 in data set [1], 7.27 in data set [2] and 6.39 in data set [3].

In the case of `Cc1ccc2oc(-c3ccc(OCCCCc4cn(CCOCCOCCOc5ccc(-c6cc(=O)c7cc(F)ccc7o6)cc5)nn4)cc3)cc(=O)c2c1`, the figures for the negative-log EC50 (pEC50) in data set [1], in data set [2] and in data set [3] were 6.49, 7.24 and 6.13, respectively.

In the case of `COC(=O)c1cccc(COc2c(-c3ccc(OCCOCCn4cc(CN5CCCN(Cc6cn(CCOCCOc7ccc(-c8oc9ccccc9c(=O)c8OCc8cccc(C(=O)OC)c8)cc7)nn6)CC5)nn4)cc3)oc3ccccc3c2=O)c1`, the negative logarithm of the EC50 (pEC50) in data set [1] is 7.26; in data set [2], 6.97; in data set [3], 6.24.

For `Cc1ccc2oc(-c3ccc(OCCCCc4cn(CCN(CCOc5ccc(-c6cc(=O)c7ccccc7o6)cc5)Cc5ccccc5)nn4)cc3)cc(=O)c2c1`, the pEC50 in data set [1] is 7.41; in data set [2], 7.15; in data set [3], 6.17.

`Cc1ccc2oc(-c3ccc(OCCCCc4cn(CCOCCOc5ccc(-c6oc7ccccc7c(=O)c6OCc6ccccc6)cc5)nn4)cc3)cc(=O)c2c1`: the figures for the negative logarithm of the EC50 (pEC50) in data set [1], in data set [2] and in data set [3] were 7.62, 7.48 and 6.22, respectively.

Regarding `O=c1cc(-c2ccc(OCCOCCn3cc(CCCOc4ccc5c(=O)cc(-c6ccccc6)oc5c4)nn3)cc2)oc2ccccc12`, the pEC50 in data set [1] was 7.52; in data set [2], 7.17; in data set [3] it was 6.52.

For the compound `O=c1cc(-c2ccccc2)oc2cc(OCCn3cc(CN(Cc4ccccc4)Cc4cn(CCOc5ccc6c(=O)cc(-c7ccccc7)oc6c5)nn4)nn3)ccc12`, the negative-log EC50 (pEC50) in data set [1] was 6.31; in data set [2], 6.61; in data set [3], under 6.00.

With `COC(=O)c1cccc(COc2c(-c3ccc(OCCOCCOCCn4cc(CN(Cc5cn(CCOCCOCCOc6ccc(-c7oc8ccccc8c(=O)c7OCc7cccc(C(=O)OC)c7)cc6)nn5)c5ccccc5)nn4)cc3)oc3ccccc3c2=O)c1`, the results for the pEC50 in data set [1], in data set [2] and in data set [3] were 8.41, 8.24 and under 6.00, respectively.

For the compound `O=c1cc(-c2ccccc2)oc2cc(OCCN(Cc3ccccc3)Cc3cn(CCOCCOc4ccc(-c5cc(=O)c6cc(F)ccc6o5)cc4)nn3)ccc12`, the pEC50 in data set [1] is 7.27; in data set [2], 7.32; in data set [3], 6.55.

Take `O=c1cc(-c2ccccc2)oc2cc(OCCOCCOCCn3cc(CN(Cc4ccccc4)Cc4cn(CCOCCOCCOc5ccc6c(=O)cc(-c7ccccc7)oc6c5)nn4)nn3)ccc12`: the pEC50 in data set [1] was 6.60; in data set [2] it was 7.08; in data set [3], under 6.00.

For the compound `COC(=O)c1cccc(COc2c(-c3ccc(OCCOCCn4cc(CCCOc5ccc(-c6cc(=O)c7ccc(F)cc7o6)cc5)nn4)cc3)oc3ccccc3c2=O)c1`, the pEC50 is 8.19 in data set [1], 8.02 in data set [2] and 6.32 in data set [3].

`COC(=O)c1cccc(COc2c(-c3ccc(OCCOCCn4cc(CN(Cc5ccncc5)Cc5cn(CCOCCOc6ccc(-c7oc8ccccc8c(=O)c7OCc7cccc(C(=O)OC)c7)cc6)nn5)nn4)cc3)oc3ccccc3c2=O)c1`: the pEC50 in data set [1] was 7.60; in data set [2] it was 7.31; in data set [3], under 6.00.

Take `OCCOCCn1cc(CN(Cc2ccccc2)Cc2cn(CCOCCO)nn2)nn1`: the negative logarithm of the EC50 (pEC50) in data set [1], in data set [2] and in data set [3] was under 6.00 in each case.

On to `O=c1cc(-c2ccccc2)oc2cc(OCCN(Cc3ccccc3)Cc3cn(CCOc4ccc5c(=O)cc(-c6ccccc6)oc5c4)nn3)ccc12`, for which the pEC50 in data set [1] was 6.55; in data set [2], 6.72; in data set [3] it was 6.05.

Regarding `O=c1c(OCc2ccccc2)c(-c2ccc(OCCOCCOCCn3cc(CN(Cc4ccccc4)Cc4cn(CCOCCOCCOc5ccc(-c6oc7ccccc7c(=O)c6OCc6ccccc6)cc5)nn4)nn3)cc2)oc2ccccc12`, the pEC50 is 7.59 in data set [1], 7.44 in data set [2] and 6.25 in data set [3].

In the case of `O=c1cc(-c2ccccc2)oc2cc(OCCCCc3cn(CCOCCOCCOc4ccc(-c5oc6ccccc6c(=O)c5OCc5ccccc5)cc4)nn3)ccc12`, the pEC50 in data set [1] is 7.80; in data set [2], 7.46; in data set [3], 6.56.

Take `O=c1cc(-c2ccccc2)oc2cc(OCCCCc3cn(CCOCCOc4ccc5c(=O)cc(-c6ccccc6)oc5c4)nn3)ccc12`: the pEC50 in data set [1] was 7.41; in data set [2] it was 7.47; in data set [3] it was 6.44.
